Patent US8173378B2, “Methods of using an alpha-1-adrenergic receptor having altered ligand affinity” (Pharmacome LLC, priority 2007, dated 2012)

How the values were obtained:
[1] = molecular target: T1, α1B-adrenergic receptor (Homo sapiens, UniProt P35368); settings: α1B subtype; cited from earlier work
T1 sequence (P35368 1-520): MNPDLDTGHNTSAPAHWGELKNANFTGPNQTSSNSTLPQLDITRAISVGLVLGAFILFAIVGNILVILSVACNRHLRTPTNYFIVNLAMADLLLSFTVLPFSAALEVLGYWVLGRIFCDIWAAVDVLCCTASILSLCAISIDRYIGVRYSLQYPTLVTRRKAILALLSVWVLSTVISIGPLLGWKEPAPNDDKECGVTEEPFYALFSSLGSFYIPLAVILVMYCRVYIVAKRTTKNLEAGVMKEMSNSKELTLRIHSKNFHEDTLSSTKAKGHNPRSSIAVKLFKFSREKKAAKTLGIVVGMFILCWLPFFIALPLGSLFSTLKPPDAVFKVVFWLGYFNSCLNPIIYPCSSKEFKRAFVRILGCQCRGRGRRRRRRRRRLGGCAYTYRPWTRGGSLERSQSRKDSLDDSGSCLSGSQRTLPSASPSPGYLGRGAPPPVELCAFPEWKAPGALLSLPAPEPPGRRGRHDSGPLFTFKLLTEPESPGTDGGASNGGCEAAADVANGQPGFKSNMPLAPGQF

[2] = molecular target: T2, α1L-adrenergic receptor (α1A-adrenergic receptor / CRELD1α complex) in α1L cells (Homo sapiens, UniProt P35348); assay: Whole-cell [3H]-silodosin binding in α1L cells (CHO-K1 coexpressing ADRA1A and CRELD1α); settings: for sensitivity of receptors in α1L cells (in words): whole-cell competition binding
T2 construct: the coding region of the ADRA1A gene was subcloned into the EcoRI restriction enzyme site of the multicloning site A of the pIRES; expressed in transfected cells
T2 sequence (P35348 1-466): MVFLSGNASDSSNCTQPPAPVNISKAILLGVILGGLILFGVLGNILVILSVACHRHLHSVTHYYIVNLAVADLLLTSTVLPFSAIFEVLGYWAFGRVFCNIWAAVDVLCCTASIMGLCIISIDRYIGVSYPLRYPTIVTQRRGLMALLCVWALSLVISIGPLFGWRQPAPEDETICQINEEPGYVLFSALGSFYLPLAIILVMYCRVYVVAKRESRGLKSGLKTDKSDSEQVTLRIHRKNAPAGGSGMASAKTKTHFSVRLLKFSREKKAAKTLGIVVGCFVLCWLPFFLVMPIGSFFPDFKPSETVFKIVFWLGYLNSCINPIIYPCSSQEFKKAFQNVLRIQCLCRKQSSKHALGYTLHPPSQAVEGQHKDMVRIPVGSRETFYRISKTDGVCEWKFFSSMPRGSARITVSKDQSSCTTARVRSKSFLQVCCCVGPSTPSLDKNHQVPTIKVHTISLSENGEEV
T2 sequence (Q96HD1 30-420 partner): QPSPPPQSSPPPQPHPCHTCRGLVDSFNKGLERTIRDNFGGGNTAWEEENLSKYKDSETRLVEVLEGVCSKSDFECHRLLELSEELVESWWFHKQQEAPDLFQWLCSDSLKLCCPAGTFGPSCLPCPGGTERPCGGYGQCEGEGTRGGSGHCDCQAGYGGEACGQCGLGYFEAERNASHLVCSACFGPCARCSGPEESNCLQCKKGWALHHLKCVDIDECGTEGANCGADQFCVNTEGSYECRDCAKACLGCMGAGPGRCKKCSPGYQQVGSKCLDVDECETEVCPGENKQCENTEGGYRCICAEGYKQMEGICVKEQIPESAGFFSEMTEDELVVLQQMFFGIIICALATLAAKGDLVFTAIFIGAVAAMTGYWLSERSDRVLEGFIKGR
Experimental: (§1) The vector was amplified/purified in a conventional method, and then transfected into CHO-K1 cells, which are cells of Chinese Hamster ovarian origin, with Lipofectamine 2000 (Invitrogen Corporation) according to the manufacturer's protocol. Two days after the transfection, 1200 μg/ml of the antibiotic Geneticin (G418) were added to the DMEM culture medium. […] The G418-resistant cells were diluted, suspended, and injected dividedly into a 96-well plate so that an average of 0.5 cells was put in per well, and a single colony was chosen. This operation was repeated three times, whereby a stable clone (au cells) having coexpressed the ADRA1A gene and the CREDL1α gene was produced. Further, as control groups, the cells (α1A cells) having stably expressed only the ADRA1A gene and the cells (CREDL1α cells) having stably expressed only the CREDL1α gene were produced.
The stable clone was studied by a pharmacological binding method with [^3H]-silodosin, which is a radioligand. An experiment was conducted using a whole-cell binding method. That is, cells were scattered two to three days before the experiment so that they are semi-confluent, washed twice with ice-cold PBS, and then scraped by a scraper. The cells thus collected were suspended again in a Krebs-HEPES solution, and then incubated at 4° C. for four hours together with [^3H]-silodosin and another drug as needed. Thereafter, the cells were filtered/washed by a Whatmann GC/F filter pretreated with polyethylene imine, and the radioactivity was measured by a liquid scintillation counter. The non-specific binding was evaluated as binding in the presence of 30 μM phenotolamine.
The binding of [^3H]-silodosin of various concentrations (30 to 1000 pM) to the α1L cells was examined (FIG. 1).
Silodosin is known to bind selectively to the α1A- and α1L-subtypes with a high affinity. […] The α1A cells were used as control cell line. [^3H]-silodosin is known as a selective antagonist of α1A- and α1L-subtypes both.

[3] = molecular target: T3, α1L-adrenergic receptors in human prostate tissue segments (Homo sapiens, UniProt P35348); assay: [3H]-silodosin binding in human prostate tissue segments
T3 construct: from tissue; host or cells: human prostate tissue segments
T3 sequence (P35348 1-466): T2 sequence (P35348 1-466)

[4] = molecular target: α1L-adrenergic receptor; settings: α1L subtype; cited from earlier work
[5] = molecular target: T4, α1A-adrenergic receptor in α1A cells (Homo sapiens, UniProt P35348); assay: Whole-cell [3H]-silodosin binding in α1A cells (CHO-K1 expressing only ADRA1A)
T4 construct: the coding region of the ADRA1A gene was subcloned into the EcoRI restriction enzyme site of the multicloning site A of the pIRES; expressed in transfected cells
T4 sequence (P35348 1-466): T2 sequence (P35348 1-466)
Experimental: as §1
The stable clone was studied by a pharmacological binding method with [^3H]-silodosin, which is a radioligand. An experiment was conducted using a whole-cell binding method. […] Thereafter, the cells were filtered/washed by a Whatmann GC/F filter pretreated with polyethylene imine, and the radioactivity was measured by a liquid scintillation counter. The non-specific binding was evaluated as binding in the presence of 30 μM phenotolamine. […]

[6] = molecular target: T5, α1A-adrenergic receptor (Homo sapiens, UniProt P35348); settings: α1A subtype; cited from earlier work
T5 sequence (P35348 1-466): T2 sequence (P35348 1-466)

[7] = molecular target: T6, α1D-adrenergic receptor (Homo sapiens, UniProt P25100); settings: α1D subtype; cited from earlier work
T6 sequence (P25100 1-572): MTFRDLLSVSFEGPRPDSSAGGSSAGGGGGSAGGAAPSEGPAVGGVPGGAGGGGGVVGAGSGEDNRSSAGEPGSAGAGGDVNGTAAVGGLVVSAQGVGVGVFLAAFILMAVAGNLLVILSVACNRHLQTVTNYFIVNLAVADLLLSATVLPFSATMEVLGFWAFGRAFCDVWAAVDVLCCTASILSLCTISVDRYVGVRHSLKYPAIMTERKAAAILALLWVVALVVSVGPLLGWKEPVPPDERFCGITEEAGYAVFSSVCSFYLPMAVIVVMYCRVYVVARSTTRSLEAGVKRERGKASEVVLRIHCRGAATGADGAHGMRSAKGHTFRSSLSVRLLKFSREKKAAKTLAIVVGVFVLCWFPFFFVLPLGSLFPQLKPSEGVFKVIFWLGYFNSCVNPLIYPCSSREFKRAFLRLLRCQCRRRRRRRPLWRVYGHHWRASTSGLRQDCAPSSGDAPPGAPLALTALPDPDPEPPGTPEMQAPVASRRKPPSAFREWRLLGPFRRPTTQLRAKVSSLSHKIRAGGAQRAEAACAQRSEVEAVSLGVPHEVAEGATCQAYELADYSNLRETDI

Compound	Affinity (pKb) [1]	sensitivity of receptors in α1L cells (in words) ([2]; α1L cells)	Ki [3]	Affinity (pKb) [4]	Ki [5]	Affinity (pKb) [6]	Affinity (pKb) [7]	Ki [2]	Kd ([3]; human prostate tissue segments, read-out: pKD (dissociation equilibrium constant from saturation binding curve) (converted))	Kd ([5]; α1A cells, whole-cell method, read-out: pKD (dissociation equilibrium constant from saturation binding curve) (converted))	maximum binding amount (Bmax) ([2]; α1L cells, saturation binding, 30 to 1000 pM)	Kd ([2]; α1L cells, saturation binding, whole-cell method)
COc1ccccc1N1CCN(CCN2C(=O)CC3(CCCC3)CC2=O)CC1.Cl.Cl [BMY 7378, 8-[2-[4-(2-methoxyphenyl)-1-piperazinyl]ethyl]8-azaspiro[4,5]decane7,9-dione dihydrochloride]	7.4	only low sensitivity										
CC(C)(Cc1c[nH]c2ccc(Cl)cc12)NCCOc1ccccc1OCC1CC1.Cl [RS-17053, N-[2-(2-cyclopropylmethoxyphenoxy)ethyl]-5-chloro-α,α-dimethyl-1H-indole-3-ethanamine hydrochloride]	7.8	low in sensitivity	251 nM	6.3	1.58 nM	9.1-8.4	7.8	> 1000 nM				
C[C@H](Cc1cc2c(c(C(N)=O)c1)N(CCCO)CC2)NCCOc1ccccc1OCC(F)(F)F [[^3H]-silodosin]									0.316 nM	0.2 nM	134 fmol/mg protein	0.843 nM
C[C@H](Cc1cc2c(c(C(N)=O)c1)N(CCCO)CC2)NCCOc1ccccc1OCC(F)(F)F [silodosin]	8.1			10.7-9.5		10.7-9.5	8.6					
CCOc1ccccc1OCCN[C@H](C)Cc1ccc(OC)c(S(N)(=O)=O)c1 [tamsulosin]	9.3	high sensitivity					9.9					
